Measured values published in the supplement of paper PMC4862054.
Several values for one entry are separate records, joined by “and”; a condition that tells them apart may be missing. Equal values may be shown once.

Legend:
Assay in all cases: normalised viability (% of control), CellTiter-Blue; higher = more viable cells (about 100 = DMSO control)
Conditions in all cases: incubation time: 72 h
CAL-148 [1] = system: CAL-148
Protocol: (§1)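 DSRT, CellTiter-Blue viability, 72 h incubation. Signal is normalised to DMSO and benzethonium chloride controls. Value is the normalised response at dose 8.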

CAL-51 [2] = system: CAL-51
Protocol: as §1

CAL-85-1 [3] = system: CAL-85-1
Protocol: as §1

DU-4475 [4] = system: DU-4475
Protocol: as §1

HDQ-P1 [5] = system: HDQ-P1
Protocol: as §1

MDA-MB-453 [6] = system: MDA-MB-453
Protocol: as §1

CAL-148 [7] = system: CAL-148; remark: listed apart in the source
Protocol: (§2)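 DSRT, CellTiter-Blue viability, 72 h incubation. Signal is normalised to DMSO and benzethonium chloride controls. Value is the normalised response at dose 6.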

CAL-51 [8] = system: CAL-51; remark: listed apart in the source
Protocol: as §2

CAL-85-1 [9] = system: CAL-85-1; remark: listed apart in the source
Protocol: as §2

DU-4475 [10] = system: DU-4475; remark: listed apart in the source
Protocol: as §2

HDQ-P1 [11] = system: HDQ-P1; remark: listed apart in the source
Protocol: as §2

MDA-MB-453 [12] = system: MDA-MB-453; remark: listed apart in the source
Protocol: as §2

CAL-148 [13] = system: CAL-148; remark: listed apart in the source
Protocol: (§3)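 DSRT, CellTiter-Blue viability, 72 h incubation. Signal is normalised to DMSO and benzethonium chloride controls. Value is the normalised response at dose 9.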

CAL-51 [14] = system: CAL-51; remark: listed apart in the source
Protocol: as §3

CAL-85-1 [15] = system: CAL-85-1; remark: listed apart in the source
Protocol: as §3

DU-4475 [16] = system: DU-4475; remark: listed apart in the source
Protocol: as §3

MDA-MB-453 [17] = system: MDA-MB-453; remark: listed apart in the source
Protocol: as §3

SMILES	normalised viability (CAL-148 [1])	normalised viability (CAL-51 [2])	normalised viability (CAL-85-1 [3])	normalised viability (DU-4475 [4])	normalised viability (HDQ-P1 [5])	normalised viability (MDA-MB-453 [6])	normalised viability (CAL-148 [7])	normalised viability (CAL-51 [8])	normalised viability (CAL-85-1 [9])	normalised viability (DU-4475 [10])	normalised viability (HDQ-P1 [11])	normalised viability (MDA-MB-453 [12])	normalised viability (CAL-148 [13])	normalised viability (CAL-51 [14])	normalised viability (CAL-85-1 [15])	normalised viability (DU-4475 [16])	normalised viability (MDA-MB-453 [17])
CCS(=O)(=O)c1cccc(-c2cc(C(=O)NC3CCN(C)CC3)c(C)c3[nH]c4ncc(C)cc4c23)c1 [TAK-901] (300 nM)	74%	42.5%	53.2%	76.5%	49.2%	60%											
C#Cc1cccc(Nc2ncnc3cc(OC)c(OCCCCCCC(=O)NO)cc23)c1 [CUDC-101] (3000 nM)	11.9%	68%	4.33%	35%	41.6%	4.71%											
Cn1cnc2c(F)c(Nc3ccc(Br)cc3F)c(C(=O)NOCCO)cc21 [MEK-162] (30 nM)							95.1%	96.5%	101%	61.2%	47.6%	118%					
O=C(c1ccc(OCCN2CCCCC2)cc1)c1c(-c2ccc(O)cc2)sc2cc(O)ccc12 [Raloxifene] (3000 nM)	109%	101%	94.3%	121%	89.1%	91.9%											
COc1ccc(C2=N[C@@H](c3ccc(Cl)cc3)[C@@H](c3ccc(Cl)cc3)N2C(=O)N2CCNC(=O)C2)c(OC(C)C)c1 [Nutlin-3] (3000 nM)	72.6%	73%	101%	67.5%	120%	83.9%											
COC(=O)C[C@](O)(CCCC(C)(C)O)C(=O)O[C@@H]1C(OC)=C[C@]23CCCN2CCc2cc4c(cc2[C@H]13)OCO4 [Omacetaxine mepesuccinate] (3000 nM)	5.63%	5.99%	2%	3.79%	13.4%	5.64%											
Cn1cnc2c(F)c(Nc3ccc(Br)cc3F)c(C(=O)NOCCO)cc21 [MEK-162] (300 nM)	87.1%	90%	86.7%	4.15%	95.6%	136%											
c1ccc(C2CN3CCSC3=N2)cc1 (centres undefined) [Tetramisole] (3000 nM)	109%	101%	93.5%	95.4%	101%	116%											
CN1CCN(c2ccc3nc(-c4c(N)c5c(F)cccc5[nH]c4=O)[nH]c3c2)CC1 [Dovitinib] (3000 nM)	90.2%	109%	86.9%	87.9%	87.4%	93.4%											
CS(=O)(=O)CCNCc1ccc(-c2ccc3ncnc(Nc4ccc(OCc5cccc(F)c5)c(Cl)c4)c3c2)o1 [Lapatinib] (10000 nM)													60.4% and 65.6%	90% and 94.5%	30% and 39.3%	117% and 99.2%	20.9% and 28.7%
CC(C)(C)c1cc(NC(=O)Nc2ccc(-c3cn4c(n3)sc3cc(OCCN5CCOCC5)ccc34)cc2)no1 [Quizartinib] (300 nM)	102%	102%	106%	98.5%	103%	110%											
CS(=O)(=O)CCNCc1ccc(-c2ccc3ncnc(Nc4ccc(OCc5cccc(F)c5)c(Cl)c4)c3c2)o1 [Lapatinib] (3000 nM)	80.7% and 87.1%	107% and 96.5%	52.1% and 54.6%	117% and 105%	84.5% and 104%	33.4% and 38.4%											
CCOc1cc2ncc(C#N)c(Nc3ccc(OCc4ccccn4)c(Cl)c3)c2cc1NC(=O)/C=C/CN(C)C [Neratinib] (300 nM)	101%	88%	121%	87.2%	122%	79.9%											
C[C@@]1(C(=O)Nc2ccc(F)nc2)CCCN1c1nc(Nc2cc(C3CC3)n[nH]2)c2cccn2n1 (3000 nM)	42.9%	31.4%	38.1%	14.8%	25.6%	65.4%											
COc1c(C)cnc(Cn2cnc3c(Cl)nc(N)nc32)c1C [BIIB021] (3000 nM)	17%	10.2%	22.9%	-0.3%	33%	6.99%											
CCCC(CCC)C(=O)O [Valproic acid] (3000 nM)	104%	103%	90%	88%	112%	103%											
O=c1[nH]c(=O)n([C@H]2C[C@H](O)[C@@H](CO)O2)cc1F [Floxuridine] (3000 nM)	44.8%	22.8%	42.9%	97.9%	80.1%	71.8%											
COc1cccc2c1C(=O)c1c(O)c3c(c(O)c1C2=O)C[C@@](O)(C(C)=O)C[C@@H]3O[C@H]1C[C@H](N)[C@H](O)[C@H](C)O1 [Daunorubicin] (300 nM)	48.7%	31.2%	53.8%	33.6%	52.7%	76.1%											
O=P(O)(NCCCl)NCCCl [Ifosfamide mustard] (3000 nM)	100%	108%	96.5%	104%	106%	114%											
COC1=CC(c2cc3ccccc3[nH]2)=N/C1=C\c1[nH]c(C)cc1C [Obatoclax] (3000 nM)	59.6%	38.5%	31.2%	78.5%	39.3%	33.4%											
